Each structure is given as a SMILES string. Activity calls are given as the source filed them. The rule behind the calls is not given here.

Assay [1] deals with Plasmodium falciparum. As to the kind of experiment: In vitro antimalarial activity for chloroquine-resistant Plasmodium falciparum at 32 uM/well dose at 24 hrs in Schizont maturation assay. It counts as functional.
Assay [2] relates to Plasmodium falciparum. As to the kind of experiment: In vitro inhibition of Plasmodium falciparum at 64 uM/well dose at 72 hrs in total parasite growth assay. It counts as functional.
Assay [3] concerns Plasmodium falciparum. As to the kind of experiment: In vitro inhibition of Plasmodium falciparum at 8 uM/well dose at 72 hrs in total parasite growth assay. The assay is classed as functional.
Assay [4] deals with Plasmodium falciparum. As to the kind of experiment: In vitro antimalarial activity for Plasmodium falciparum at 16 uM/well dose at 24 hrs in Schizont maturation assay. It counts as functional.
Assay [5] concerns Plasmodium falciparum. As to the kind of experiment: In vitro antimalarial activity for Plasmodium falciparum at 1 uM/well dose at 24 hrs in Schizont maturation assay. The assay is classed as functional.
The test system of assay [6] is Plasmodium falciparum. As to the kind of experiment: In vitro antimalarial activity for chloroquine-resistant Plasmodium falciparum at a dose of 4 uM/well through Schizonts maturation assay over 24 hr. It counts as functional.
Assay [7] concerns Plasmodium falciparum. The assay is described as follows: In vitro antimalarial activity for Plasmodium falciparum at 2 uM/well dose at 24 hrs in Schizont maturation assay. It counts as functional.
The test system of assay [8] is Plasmodium falciparum. The assay is described as follows: In vitro antimalarial activity for Plasmodium falciparum at 32 uM/well dose at 24 hrs in Schizont maturation assay. The assay is classed as functional.
For assay [9], the system named is Plasmodium falciparum. The assay is described as follows: In vitro antimalarial activity for Plasmodium falciparum at 4 uM/well dose at 24 hrs in Schizont maturation assay. It counts as functional.
Assay [10] deals with Plasmodium falciparum. As to the kind of experiment: In vitro antimalarial activity for Plasmodium falciparum at 64 uM/well dose at 24 hrs in Schizont maturation assay. The assay is classed as functional.
The subject of assay [11] is Plasmodium falciparum. As to the kind of experiment: In vitro antimalarial activity for Plasmodium falciparum at 8 uM/well dose at 24 hrs in Schizont maturation assay. The assay is classed as functional.
In assay [12] the test system is Plasmodium falciparum. The assay is described as follows: In vitro antimalarial activity for chloroquine-resistant Plasmodium falciparum at 16 uM/well dose at 24 hrs in Schizont maturation assay. It counts as functional.
Assay [13] has as its system Plasmodium falciparum. As to the kind of experiment: In vitro antimalarial activity for chloroquine-resistant Plasmodium falciparum at 1 uM/well dose at 24 hrs in Schizont maturation assay. It counts as functional.
The subject of assay [14] is Plasmodium falciparum. As to the kind of experiment: In vitro antimalarial activity for chloroquine-resistant Plasmodium falciparum at 2 uM/well dose at 24 hrs in Schizont maturation assay. It counts as functional.
In assay [15] the test system is Plasmodium falciparum. The assay is described as follows: In vitro inhibition of Plasmodium falciparum at 4 uM/well dose at 72 hrs in total parasite growth assay. It counts as functional.
The subject of assay [16] is Plasmodium falciparum. As to the kind of experiment: In vitro antimalarial activity for chloroquine-resistant Plasmodium falciparum at 64 uM/well dose at 24 hrs in Schizont maturation assay. The assay is classed as functional.
The test system of assay [17] is Plasmodium falciparum. As to the kind of experiment: In vitro antimalarial activity for chloroquine-resistant Plasmodium falciparum at 8 uM/well dose at 24 hrs in Schizont maturation assay. It counts as functional.
The subject of assay [18] is Plasmodium falciparum. The assay is described as follows: In vitro inhibition of Plasmodium falciparum at 16 uM/well dose at 72 hrs in total parasite growth assay. The assay is classed as functional.
In assay [19] the test system is Plasmodium falciparum. As to the kind of experiment: In vitro inhibition of Plasmodium falciparum at 2 uM/well dose at 72 hrs in total parasite growth assay. It counts as functional.
Assay [20] relates to Plasmodium falciparum. The assay is described as follows: In vitro inhibition of Plasmodium falciparum at 32 uM/well dose at 72 hrs in total parasite growth assay. The assay is classed as functional.
Assay [21] has as its system Plasmodium falciparum. As to the kind of experiment: In vitro inhibition of Plasmodium falciparum at 1.0 uM/well dose at 72 hrs in total parasite growth assay. The assay is classed as functional.
Assay [22] relates to Mus musculus. As to the kind of experiment: In vivo antimalarial activity against Plasmodium berghei in mice (Mus musculus); Inactive. The assay is classed as functional, organism-based.
For assay [23], the system named is Mus musculus. The assay is described as follows: Antimalarial activity against Plasmodium berghei evaluated in terms of mean survival time for mice (Mus musculus) at a dose of 160 mg/kg. It counts as functional.
The test system of assay [24] is Mus musculus. As to the kind of experiment: Anti-malarial activity against Plasmodium berghei evaluated in terms of mean survival time for mice (Mus musculus) at a dose of 20 mg/kg. It counts as functional.
Assay [25] relates to Mus musculus. As to the kind of experiment: Antimalarial activity against Plasmodium berghei evaluated in terms of mean survival time for mice (Mus musculus) at a dose of 40 mg/kg. It counts as functional.
For assay [26], the system named is Mus musculus. As to the kind of experiment: Antimalarial activity against Plasmodium berghei evaluated in terms of mean survival time for mice (Mus musculus) at a dose of 80 mg/kg. It counts as functional.
Assay [27] deals with Plasmodium falciparum. As to the kind of experiment: In vitro antimalarial activity for Plasmodium falciparum at 100 uM/well dose at 24 hrs in Schizont maturation assay. It counts as functional.
The test system of assay [28] is Plasmodium falciparum. As to the kind of experiment: In vitro antimalarial activity for Plasmodium falciparum at 10 uM/well dose at 24 hrs in Schizont maturation assay. The assay is classed as functional.
The test system of assay [29] is Plasmodium falciparum. The assay is described as follows: In vitro antimalarial activity for Plasmodium falciparum at 2.5 uM/well dose at 24 hrs in Schizont maturation assay. It counts as functional.
Assay [30] has as its system Plasmodium falciparum. As to the kind of experiment: In vitro antimalarial activity for Plasmodium falciparum at 20 uM/well dose at 24 hrs in Schizont maturation assay. The assay is classed as functional.
Assay [31] deals with Plasmodium falciparum. The assay is described as follows: In vitro antimalarial activity for Plasmodium falciparum at 50 uM/well dose at 24 hrs in Schizont maturation assay. The assay is classed as functional.
Assay [32] relates to Plasmodium falciparum. The assay is described as follows: In vitro antimalarial activity for Plasmodium falciparum at 5 uM/well dose at 24 hrs in Schizont maturation assay. The assay is classed as functional.
Assay [33] relates to Plasmodium falciparum. As to the kind of experiment: In vitro inhibition of Plasmodium falciparum at 50 uM/well dose at 72 hrs in total parasite growth assay. The assay is classed as functional.
Assay [34] has as its system Plasmodium falciparum. As to the kind of experiment: In vitro inhibition of Plasmodium falciparum at 5 uM/well dose at 72 hrs in total parasite growth assay. It counts as functional.
Assay [35] deals with Plasmodium falciparum. As to the kind of experiment: In vitro inhibition of Plasmodium falciparum at 0.25 uM/well dose at 72 hrs in total parasite growth assay. It counts as functional.
The subject of assay [36] is Plasmodium falciparum. The assay is described as follows: In vitro inhibition of Plasmodium falciparum at 0.5 uM/well dose at 72 hrs in total parasite growth assay. The assay is classed as functional.
In assay [37] the test system is Plasmodium falciparum. As to the kind of experiment: In vitro inhibition of Plasmodium falciparum at 2.5 uM/well dose at 72 hrs in total parasite growth assay. It counts as functional.
Assay [38] concerns Plasmodium falciparum. The assay is described as follows: In vitro growth inhibition against Plasmodium falciparum at a dose of 20 uM/well through total parasite growth inhibition assay over 72 hr. It counts as functional.
For assay [39], the system named is Plasmodium falciparum. As to the kind of experiment: In vitro inhibition of Plasmodium falciparum at 100 uM/well dose at 72 hrs in total parasite growth assay. It counts as functional.
For assay [40], the system named is Plasmodium falciparum. As to the kind of experiment: In vitro inhibition of Plasmodium falciparum at 10 uM/well dose at 72 hrs in total parasite growth assay. The assay is classed as functional.
In assay [41] the test system is Plasmodium falciparum. The assay is described as follows: In vitro antimalarial activity for Plasmodium falciparum at 0.50 uM/well dose at 24 hrs in Schizont maturation assay. It counts as functional.
In assay [42] the test system is Plasmodium falciparum. The assay is described as follows: In vitro antimalarial activity for Plasmodium falciparum at 0.10 uM/well dose at 24 hrs in Schizont maturation assay. The assay is classed as functional.
Assay [43] has as its system Plasmodium falciparum. The assay is described as follows: In vitro antimalarial activity for Plasmodium falciparum at 0.25 uM/well dose at 24 hrs in Schizont maturation assay. It counts as functional.

For the compound `CCN(CC)CCCC(C)Nc1ccnc2cc(Cl)ccc12.O=P(O)(O)O.O=P(O)(O)O` (stereo not given) [CHLOROQUINE PHOSPHATE], the inhibition at 32 µM with Plasmodium falciparum [1] and with Plasmodium falciparum [8] was 100% in each case. Moreover, the PGI is recorded as 100% in the assay with Plasmodium falciparum [2]; 100% in the assay on Plasmodium falciparum [3]; 91.7% in the assay with Plasmodium falciparum [15]; 100% with Plasmodium falciparum [18]; 58.3% in the assay on Plasmodium falciparum [19]; 100% with Plasmodium falciparum [20]. This compound gave a PGI in the assay with Plasmodium falciparum [21] of 16.7%. Moreover, the inhibition at 16 µM in the assay with Plasmodium falciparum [4] and in the assay with Plasmodium falciparum [12] was 100% in each case. For the same compound, the inhibition at 1 µM with Plasmodium falciparum [5] and in the assay with Plasmodium falciparum [13] was 0% throughout. Also, the inhibition at 4 µM with Plasmodium falciparum [6] and in the assay on Plasmodium falciparum [9] was 39.4% throughout. Further, the inhibition at 2 µM in the assay with Plasmodium falciparum [7] and in the assay with Plasmodium falciparum [14] was 16% throughout. For the same compound, the inhibition at 64 µM in the assay with Plasmodium falciparum [10] and with Plasmodium falciparum [16] was 100% each time. Moreover, the inhibition at 8 µM in the assay with Plasmodium falciparum [11] and in the assay on Plasmodium falciparum [17] was 86.8% in each case.
For the compound `COC(=O)C(CNC(C)C)C(O)c1ccc([N+](=O)[O-])cc1` (stereo not given), the result with Mus musculus [22] was inactive. Also, the Mean survival time was 11.8 days in the assay on Mus musculus [23], 7 days in the assay with Mus musculus [24], 8.2 days with Mus musculus [25] and 9.8 days with Mus musculus [26]. In the assay with Plasmodium falciparum [27], this compound returned an inhibition at 100 µM of 100%. Further, in the assay with Plasmodium falciparum [28], at 10 µM the inhibition was 29%. In the assay with Plasmodium falciparum [5], 1 µM produced 14% inhibition. The inhibition at 2.5 µM with Plasmodium falciparum [29] was determined as 25%. Also, in the assay on Plasmodium falciparum [30], 20 µM produced 80% inhibition. Further, in the assay on Plasmodium falciparum [31], the inhibition at 50 µM was found to be 100%. This compound registered an inhibition at 5 µM in the assay on Plasmodium falciparum [32] of 29%. Further, the PGI with Plasmodium falciparum [33] is reported as 100%; in the assay with Plasmodium falciparum [34], 25%; in the assay with Plasmodium falciparum [35], 0%; with Plasmodium falciparum [36] it was 0%; in the assay on Plasmodium falciparum [37], 15%; in the assay on Plasmodium falciparum [38], 92.5%. The values for the PGI in the assay on Plasmodium falciparum [21], in the assay with Plasmodium falciparum [39] and in the assay with Plasmodium falciparum [40] were 10%, 100% and 42.5%, respectively. Also, in the assay with Plasmodium falciparum [41], the inhibition at 0.5 µM turned out to be 0%. In the assay on Plasmodium falciparum [42], this compound had an inhibition at 0.1 µM of 0%. Moreover, the inhibition at 0.25 µM in the assay with Plasmodium falciparum [43] was determined as 0%.

Source of the values: ChEMBL document CHEMBL1132520, “Antimalarial activity of 3-hydroxyalkyl-2-methylene-propionic acid derivatives” (1999).
